Assay results: patent US11174216B2, “Lipids that increase insulin sensitivity and methods of using the same” (Beth Israel Deaconess Medical Center, Inc., priority 2012, dated 2021)

Key:
[1] = test system: STC-1 cells; assay: GLP-1 secretion in STC-1 enteroendocrine cells (ELISA); format: cell-based
Experimental: For the experiments summarized in FIG. 51 STC-1 cells were incubated with vehicle (DMSO), 9-PAHSA, 5-PAHSA or 9-OAHSA at the indicated concentrations or lineolic acid (100 uM) as a positive control. Media was harvested and GLP-1 was measured by ELISA.
For the experiments summarized in FIG. 52, the same protocol as described for FIG. 51 was used, except in this experiment a time course was performed. For both FIG. 51 and FIG. 52, for GLP-1 secretion STC1 cells were washed 3× with serum free culture media followed by stimulation with FAHFAs or vehicle at the indicated concentrations and timepoints. Levels of active GLP-1 were measured by ELISA.

[2] = target: T1, GPR120 (Homo sapiens, UniProt Q5NUL3); assay: PATHHUNTER beta-Arrestin GPCR assay; format: cell-based
T1 sequence (Q5NUL3 1-361): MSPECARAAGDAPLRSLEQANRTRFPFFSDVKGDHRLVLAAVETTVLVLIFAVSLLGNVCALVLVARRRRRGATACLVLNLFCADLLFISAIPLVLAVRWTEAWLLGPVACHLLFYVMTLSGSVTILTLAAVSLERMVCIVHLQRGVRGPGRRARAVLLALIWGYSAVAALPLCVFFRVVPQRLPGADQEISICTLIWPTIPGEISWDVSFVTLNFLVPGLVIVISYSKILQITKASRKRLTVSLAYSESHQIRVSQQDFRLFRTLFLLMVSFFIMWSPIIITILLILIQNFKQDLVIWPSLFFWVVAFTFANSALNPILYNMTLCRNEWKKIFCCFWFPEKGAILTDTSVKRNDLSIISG
Text: For the experiments summarized in FIGS. 53-55, the fragment based GPCR assay from DiscoveRx (PATHHUNTER® β-Arrestin assay) was used to as per manufacturer's instructions to determine activation of specific GPCRs as indicated in FIGS. 53-55.

[3] = test system: STC-1 cells; assay: ERK phosphorylation in STC-1 cells (immunoblot); format: cell-based; conditions: 15 minutes
Experimental: For the experiments summarized in FIG. 50, STC-1 cells were incubated with 9-PAHSA, 5-PAHSA or 9-OAHSA at the indicated concentrations. Cells were harvested and lysed and proteins were separated by SDS PAGE and transferred onto nitrocellulose filters. The phosphorylation of ERK and the amount of total ERK was determined by immunoblotting with antibodies specific for total or phosphor-ERK. DMSO was the control. For ERK phosphorylation, cells were serum deprived overnight and stimulated with FAHFAs or vehicle as indicated for 15 minutes followed by lysis in RIPA buffer and analysis by SDS-PAGE

[4] = test system: FA-CoA:HFA acyltransferase activity; assay: FAHFA biosynthesis (FA-CoA:HFA acyltransferase) assay in tissue lysates; format: biochemical; conditions: 10 uM 9-HSA and oleoyl-CoA, increasing doses
Experimental: In order to understand the biology of the new FAHFA lipid class more completely, experiments were performed to identify an enzyme capable of synthesizing FAHFAs as well. By structural analogy to other lipid metabolites such as diacylglycerols or wax esters, it was hypothesized that hydroxy fatty acids were the immediate precursors to FAHFAs. Candidate acyltransferases were identified by reacting the common biochemical acyl carrier, oleoyl-CoA, with 9-hydroxystearic acid (9-HSA) in the presence of cell lysates or tissue membrane lysates to form 9-OAHSA (Scheme 2; FIG. 61 ).
After first establishing that FA-CoA:HFA acyltransferase activity was membrane-localized in liver (not shown), we isolated membrane fractions from liver or WAT tissue lysate by ultracentrifugation, then resuspended the pellets in PBS buffer and diluted to 1 mg/ml protein concentration. […] The reaction mixtures were extracted with ethyl acetate, concentrated, and reconstituted in 1:1 chloroform:methanol for MS analysis. Formation of 9-OAHSA was measured by MS/MS, with which the appearance of the parent ion m/z 563 was monitored.
In light of the above results acyltransferase families that have been reported to have a membrane-bound localization and to have the ability to conjugate FA-CoA to a hydrophobic alcohol were targeted. […]

[5] = test system: HepG2 cells; assay: PPAR agonist studies, FAHFA levels in HepG2 cells; format: cell-based; conditions: 0.5 uM and 1.0 uM, 48 hr, cells and media
Experimental: In this example, HepG2 cells were seeded in 6-well plates. At 80% confluence, cells were treated with two different concentrations [0.5 uM and 1.0 uM] of an agonist of PPAR α (WY14643), δ (CAY10592), or γ (Pioglitazone) for 48 hr in HepG2 media with 2.5% FBS. At the end of incubation, 500 uL of media was collected and the cells were collected in PBS for lipid extraction. Lipids were extracted from both media and cells to quantitate the FAHFA levels by Mass Spec. The results are summarized in FIGS. 33 and 34 for the cells and media, respectively.
HepG2 cells were seeded in 6-well plate. At 80% confluence, cells were treated with two different concentrations [0.5 μM and 1.0 μM] of PPAR α/δ/γ agonists for 48 h in HepG2 media containing 2.5% fetal bovine serum (PPAR α agonist—WY14643; PPAR δ agonist—CAY10592; PPAR γ agonist—Pioglitazone). At the end of incubation, 500 μL of media and the cells were collected in PBS. Lipids were extracted as per Folch Method from both media and cells to quantitate the FAHFA levels by Mass Spec. Briefly, chloroform and methanol were added to the media or cells in 2:1 ratio and sonicated for 2-3 min and centrifuged at 3000 rpm for 10 min at 4° C. […] Calculated volume of chloroform is added to the dissolve the lipids and 2 μL of injection volume was used to analyze FAHFAs through Mass spec. […]

[6] = test system: FAHFA hydrolysis activity in pancreas membrane lysate; assay: FAHFA hydrolysis activity assay, pancreas membrane lysate; conditions: pancreas lysate
[7] = test system: carboxyl ester lipase (CEL)
[8] = test system: FAHFA hydrolysis activity in liver lysate

CCCCCCCC/C=C\CCCCCCCC(=O)OC(CCCCCCCCC)CCCCCCCC(=O)O (stereo not shown) [9-OAHSA]
GLP-1 secretion [1]: induce GLP-1 secretion
activation of GPR120 [2]: but not 9OAHSA, activate GPR120
ERK phosphorylation [3]: induce ERK phosphorylation

O=C(Nc1ccccc1)Nc1ccc(-c2ccc(C(=O)[C@@H]3CCC[C@H]3C(=O)O)cc2)cc1 [A922500]
9-OAHSA levels (FAHFA production) [4]: no change

O=C(O)COc1ccc(SCC=C(c2ccc(Br)cc2)c2ccc(Br)cc2)cc1Cl [CAY10592]
FAHFA production in liver cells [5]: stimulate FAHFA production

CCCCCCCCCCC(C)(C)C(=O)Nc1c(OC)cc(OC)cc1OC [CI976]
9-OAHSA levels (FAHFA production) [4]: no change

C[C@H](CCC(=O)NCCS(=O)(=O)O)[C@H]1CC[C@H]2[C@@H]3[C@H](O)C[C@@H]4C[C@H](O)CC[C@]4(C)[C@H]3C[C@H](O)[C@]12C [NaTC, sodium taurocholate, reference compound]
effect on FAHFA hydrolysis [6]: markedly increased
effect on FAHFA hydrolysis [7]: enhanced
effect on FAHFA hydrolysis [8]: not enhanced

Cc1cccc(Nc2cc(Cl)nc(SCC(=O)O)n2)c1C [WY14643]
FAHFA production in liver cells [5]: stimulate FAHFA production
